Reference: patent US12516039B2, “N-linked isoquinoline amides as LRRK2 inhibitors, pharmaceutical compositions, and uses thereof” (Merck Sharp & Dohme LLC, priority 2020, dated 2026)

Target: T1, GST-tagged truncated human mutant G2019S LRRK2 (Homo sapiens, UniProt Q5S007, G2019S)
T1 construct: GST-tagged truncated human mutant G2019S LRRK2; purchased Life Technologies Corporation (Carlsbad, CA)
Assay: LRRK2 G2019S Km ATP LanthaScreen assay
Type: biochemical
Settings: 134 μM ATP (Km ATP), LRRKtide substrate, mean of several tests, read-out: LRRK2 pIC50 (converted)
Description: Unless otherwise noted, all reactions are magnetically stirred. Unless otherwise noted, when diethyl ether is used in the experiments described below, it is Fisher ACS certified material and is stabilized with BHT. Unless otherwise noted, “concentrated” and/or “solvent removed under reduced pressure” means evaporating the solvent from a solution or mixture using a rotary evaporator or vacuum pump. Unless otherwise noted, flash chromatography is carried out on a Teledyne Isco (Lincoln, NE), Analogix (Burlington, WI), or Biotage (Stockholm, SWE) automated chromatography system using a commercially available cartridge as the column. Columns may be purchased from Teledyne Isco, Analogix, Biotage, Varian (Palo Alto, CA), or Supelco (Bellefonte, PA) and are usually filled with silica gel as the stationary phase. Reverse phase prep-HPLC conditions, where used, can be found at the end of each experimental section. Aqueous solutions were concentrated on a Genevac (Ipswich, ENG) or by freeze-drying/lyophilization. Unless otherwise noted, all LRRK2 pIC50 data presented in tables refers to the LRRK2 G2019S Km ATP LanthaScreen™ assay (Life Technologies Corp., Carlsbad, CA) that is described in the Biological Assay section.
Biological Assay: LRRK2 Km ATP LanthaScreen™ Assay
The LRRK2 kinase activity reported herein as IC50 values was determined with LanthaScreen™ technology from Life Technologies Corporation (Carlsbad, CA) using GST-tagged truncated human mutant G2019S LRRK2 in the presence of the fluorescein-labeled peptide substrate LRRKtide, also from Life Technologies. The data presented for the Km ATP LanthaScreen™ Assay represents mean IC50 values based on several test results and may have reasonable deviations depending on the specific conditions and reagents used. Assays were performed in the presence of 134 μM ATP (Km ATP). Upon completion, the assay was stopped and phosphorylated substrate detected with a terbium (Tb)-labeled anti-pERM antibody (cat. no. PV4898). The compound dose response was prepared by diluting a 10 mM stock of compound to a maximum concentration of 9.99 μM in 100% dimethylsulfoxide followed by custom fold serial dilution in dimethylsulfoxide nine times. Twenty nanoliters of each dilution was spotted via a Labcyte Echo onto a 384-well black-sided plate (Corning 3575) followed by 15 μl of a 1.25 nM enzyme solution in 1× assay buffer (50 mM Tris pH 8.5, 10 mM MgCl2, 0.01% Brij-35, 1 mM EGTA, 2 mM dithiothreitol, 0.05 mM sodium orthovanadate). Following a 15-minute incubation at room temperature, the kinase reaction was started with the addition of 5 μl of 400 nM fluorescein-labeled LRRKtide peptide substrate and 134 μM ATP solution in 1× assay buffer. The reaction was allowed to progress at ambient temperature for 90 minutes. The reaction was then stopped by the addition of 20 μl of TR-FRET Dilution Buffer (Life Technologies, Carlsbad, CA) containing 2 nM Tb-labeled anti-phospho LRRKtide antibody and 10 mM EDTA (Life Technologies, Carlsbad, CA). After an incubation of 1 hour at room temperature, the plate was read on an EnVision multimode plate reader (Perkin Elmer, Waltham, MA) with an excitation wavelength of 337 nm (Laser) and a reading emission at both 520 and 495 nm. Compound IC50s were interpolated from nonlinear regression best fits of the log of the final compound concentration, plotted as a function of the 520/495-nm emission ratio using Activity base. Abase uses a 4 parameter (4P) logistic fit based on the Levenberg-Marquardt algorithm.

T1 sequence (Q5S007 970-2527 G2019S limits assumed): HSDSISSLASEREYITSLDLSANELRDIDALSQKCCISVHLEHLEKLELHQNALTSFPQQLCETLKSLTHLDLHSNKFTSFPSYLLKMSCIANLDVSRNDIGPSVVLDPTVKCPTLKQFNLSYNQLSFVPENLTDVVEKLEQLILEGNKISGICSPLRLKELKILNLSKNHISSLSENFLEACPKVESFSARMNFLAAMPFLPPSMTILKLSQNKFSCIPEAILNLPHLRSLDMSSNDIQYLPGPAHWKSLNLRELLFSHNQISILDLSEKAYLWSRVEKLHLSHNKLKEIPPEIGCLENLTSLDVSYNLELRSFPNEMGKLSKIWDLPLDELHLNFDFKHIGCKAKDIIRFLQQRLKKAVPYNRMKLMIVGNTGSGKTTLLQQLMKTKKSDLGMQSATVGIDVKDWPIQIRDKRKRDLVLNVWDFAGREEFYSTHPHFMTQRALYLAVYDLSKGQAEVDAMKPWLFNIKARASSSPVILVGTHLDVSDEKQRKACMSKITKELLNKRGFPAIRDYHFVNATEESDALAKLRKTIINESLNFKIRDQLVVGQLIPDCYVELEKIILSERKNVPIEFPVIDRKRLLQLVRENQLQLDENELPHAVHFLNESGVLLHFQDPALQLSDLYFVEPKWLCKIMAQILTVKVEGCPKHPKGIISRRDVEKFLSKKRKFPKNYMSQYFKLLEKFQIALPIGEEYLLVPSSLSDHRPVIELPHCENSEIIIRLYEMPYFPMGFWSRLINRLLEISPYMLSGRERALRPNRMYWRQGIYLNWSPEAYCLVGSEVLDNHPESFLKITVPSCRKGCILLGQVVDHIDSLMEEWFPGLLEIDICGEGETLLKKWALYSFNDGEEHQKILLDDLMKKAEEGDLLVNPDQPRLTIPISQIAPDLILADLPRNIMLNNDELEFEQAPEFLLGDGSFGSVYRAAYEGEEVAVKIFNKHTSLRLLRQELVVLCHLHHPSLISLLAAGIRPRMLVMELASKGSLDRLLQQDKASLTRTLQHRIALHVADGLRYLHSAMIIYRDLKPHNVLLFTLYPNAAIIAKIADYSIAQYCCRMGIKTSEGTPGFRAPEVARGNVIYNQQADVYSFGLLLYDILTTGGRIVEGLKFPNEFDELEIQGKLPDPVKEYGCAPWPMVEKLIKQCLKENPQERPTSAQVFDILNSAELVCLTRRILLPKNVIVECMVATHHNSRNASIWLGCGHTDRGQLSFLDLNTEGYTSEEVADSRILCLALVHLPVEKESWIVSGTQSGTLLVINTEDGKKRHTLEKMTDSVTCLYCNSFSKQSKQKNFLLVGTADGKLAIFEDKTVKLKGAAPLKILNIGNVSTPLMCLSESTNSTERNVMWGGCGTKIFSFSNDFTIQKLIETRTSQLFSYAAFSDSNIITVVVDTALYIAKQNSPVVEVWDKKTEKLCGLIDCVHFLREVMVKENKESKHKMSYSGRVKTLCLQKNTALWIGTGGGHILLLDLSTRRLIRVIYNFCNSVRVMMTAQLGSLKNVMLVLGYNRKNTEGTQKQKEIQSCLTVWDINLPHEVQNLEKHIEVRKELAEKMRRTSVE

Compound	IC50 [nM]
CC1(N2CCN(c3cc4cc(NC(=O)C5CC56CCC(F)(F)CC6)ncc4cc3Cl)CC2)COCC1O (single isomer, unassigned) [Ex-1.20, (1R or 1S)-N-(7-chloro-6-(4-((3R,4R or 3S,4S)-4-hydroxy-3-methyltetrahydrofuran-3-yl)piperazin-1-yl)isoquinolin-3-yl)-6,6-difluorospiro[2.5]octane-1-carboxamide]	63.1
CC1(C)CC(C(=O)Nc2cc3cc(N4CCN(C5(C)COCC5O)CC4)c(Cl)cc3cn2)CO1 (single isomer, unassigned) [Ex-1.21, (R or S)-N-(7-chloro-6-(4-((3R,4R or 3S,4S)-4-hydroxy-3-methyltetrahydrofuran-3-yl)piperazin-1-yl)isoquinolin-3-yl)-5,5-dimethyltetrahydrofuran-3-carboxamide]	1.74
CC1(C)CC(C(=O)Nc2cc3cc(N4CCN(C5(C)COCC5O)CC4)c(Cl)cc3cn2)CO1 (single isomer, unassigned) [Ex-1.22, (R or S)-N-(7-chloro-6-(4-((3R,4R or 3S,4S)-4-hydroxy-3-methyltetrahydrofuran-3-yl)piperazin-1-yl)isoquinolin-3-yl)-5,5-dimethyltetrahydrofuran-3-carboxamide]	1.17
CC1(C)OCCC1C(=O)Nc1cc2cc(N3CCN(C4(C)COCC4O)CC3)c(Cl)cc2cn1 (single isomer, unassigned) [Ex-1.23, (R or S)-N-(7-chloro-6-(1-((3R,4R or 3S,4S)-4-hydroxy-3-methyltetrahydrofuran-3-yl)piperazin-4-yl)isoquinolin-3-yl)-2,2-dimethyltetrahydrofuran-3-carboxamide]	7.41
CC1(C)OCCC1C(=O)Nc1cc2cc(N3CCN(C4(C)COCC4O)CC3)c(Cl)cc2cn1 (single isomer, unassigned) [Ex-1.24, (R or S)-N-(7-chloro-6-(1-((3R,4R or 3S,4S)-4-hydroxy-3-methyltetrahydrofuran-3-yl)piperazin-4-yl)isoquinolin-3-yl)-2,2-dimethyltetrahydrofuran-3-carboxamide]	69.2
COCC1CCC1C(=O)Nc1cc2cc(N3CCN(C4(C)COCC4O)CC3)c(Cl)cc2cn1 (single isomer, unassigned) [Ex-1.25, (1R,2S or 1R,2R, or 1S,2S, or 1S,2R)-N-(7-chloro-6-(4-((3R,4R)-4-hydroxy-3-methyltetrahydrofuran-3-yl)piperazin-1-yl)isoquinolin-3-yl)-2-(methoxymethyl)cyclobutane-1-carboxamide]	0.158
COCC1CCC1C(=O)Nc1cc2cc(N3CCN(C4(C)COCC4O)CC3)c(Cl)cc2cn1 (single isomer, unassigned) [Ex-1.26, (1R,2S or 1R,2R, or 1S,2S, or 1S,2R)-N-(7-chloro-6-(4-((3R,4R)-4-hydroxy-3-methyltetrahydrofuran-3-yl)piperazin-1-yl)isoquinolin-3-yl)-2-(methoxymethyl)cyclobutane-1-carboxamide]	1.45
CC1(N2CCN(c3cc4cc(NC(=O)C5CCC56CCOCC6)ncc4cc3Cl)CC2)COCC1O (single isomer, unassigned) [Ex-1.27, (R or S)-N-(7-chloro-6-(4-((3R,4R or 3S,4S)-4-hydroxy-3-methyltetrahydrofuran-3-yl)piperazin-1-yl)isoquinolin-3-yl)-7-oxaspiro[3.5]nonane-1-carboxamide]	1.29
CC1(N2CCN(c3cc4cc(NC(=O)C5CCC56CCOCC6)ncc4cc3Cl)CC2)COCC1O (single isomer, unassigned) [Ex-1.28, (R or S)-N-(7-chloro-6-(4-((3R,4R or 3S,4S)-4-hydroxy-3-methyltetrahydrofuran-3-yl)piperazin-1-yl)isoquinolin-3-yl)-7-oxaspiro[3.5]nonane-1-carboxamide]	12
CC1(N2CCN(c3cc4cc(NC(=O)C5CC56CCOCC6)ncc4cc3Cl)CC2)COCC1O (single isomer, unassigned) [Ex-2.1, (R or S)-N-(7-chloro-6-(4-((3R,4R or 3S,4S)-4-hydroxy-3-methyltetrahydrofuran-3-yl)piperazin-1-yl)isoquinolin-3-yl)-6-oxaspiro[2.5]octane-1-carboxamide]	0.389
CC1(N2CCN(c3cc4cc(NC(=O)C5CC56CCOCC6)ncc4cc3Cl)CC2)COCC1O (single isomer, unassigned) [Ex-2.2, (R or S)-N-(7-chloro-6-(4-((3R,4R or 3S,4S)-4-hydroxy-3-methyltetrahydrofuran-3-yl)piperazin-1-yl)isoquinolin-3-yl)-6-oxaspiro[2.5]octane-1-carboxamide]	3.63
C[C@H]1CN(c2cc3cc(NC(=O)C4CC45CCOCC5)ncc3cc2Cl)CCN1C1COCC1O (single isomer, unassigned) [Ex-2.3, (R or S)-N-{7-chloro-6-[(3S or 3R)-4-(3R,4R or 3S,4S)-4-hydroxyoxolan-3-yl)-3-methylpiperazin-1-yl]isoquinolin-3-yl}-6-oxaspiro[2.5]octane-1-carboxamide]	17.4
C[C@H]1CN(c2cc3cc(NC(=O)C4CC45CCOCC5)ncc3cc2Cl)CCN1C1COCC1O (single isomer, unassigned) [Ex-2.4, (R or S)-N-{7-chloro-6-[(3S or 3R)-4-(3R,4R or 3S,4S)-4-hydroxyoxolan-3-yl)-3-methylpiperazin-1-yl]isoquinolin-3-yl}-6-oxaspiro[2.5]octane-1-carboxamide]	0.38
O=C(Nc1cc2cc(N3CCN(C4COCC4O)CC3)c(Cl)cc2cn1)C1CC12CCOCC2 (single isomer, unassigned) [Ex-2.5, (R or S)-N-(7-chloro-6-(4-((3R,4R or 3S,4S)-4-hydroxytetrahydrofuran-3-yl)piperazin-1-yl)isoquinolin-3-yl)-6-oxaspiro[2.5]octane-1-carboxamide]	41.7
O=C(Nc1cc2cc(N3CCN(C4COCC4O)CC3)c(Cl)cc2cn1)C1CC12CCOCC2 (single isomer, unassigned) [Ex-2.6, (R or S)-N-(7-chloro-6-(4-((3R,4R or 3S,4S)-4-hydroxytetrahydrofuran-3-yl)piperazin-1-yl)isoquinolin-3-yl)-6-oxaspiro[2.5]octane-1-carboxamide]	3.09
O=C(Nc1cc2cc(N3CCN(C4COCC4O)CC3)c(Cl)cc2cn1)C1CC12CCOCC2 (single isomer, unassigned) [Ex-2.7, (R or S)-N-(7-chloro-6-(4-((3R,4R or 3S,4S)-4-hydroxytetrahydrofuran-3-yl)piperazin-1-yl)isoquinolin-3-yl)-6-oxaspiro[2.5]octane-1-carboxamide]	380
O=C(Nc1cc2cc(N3CCN(C4COCC4O)CC3)c(Cl)cc2cn1)C1CC12CCOCC2 (single isomer, unassigned) [Ex-2.8, (R or S)-N-(7-chloro-6-(4-((3R,4R or 3S,4S)-4-hydroxytetrahydrofuran-3-yl)piperazin-1-yl)isoquinolin-3-yl)-6-oxaspiro[2.5]octane-1-carboxamide]	24
CC1(N2CCN(c3cc4cc(NC(=O)C5CC56CCOC6)ncc4cc3Cl)CC2)COCC1O (single isomer, unassigned) [Ex-2.9, (1R,3R or 1S,3S)-N-(7-chloro-6-(4-((3R,4R or 3S,4S)-4-hydroxy-3-methyltetrahydrofuran-3-yl)piperazin-1-yl)isoquinolin-3-yl)-5-oxaspiro[2.4]heptane-1-carboxamide]	0.195
CC1(N2CCN(c3cc4cc(NC(=O)C5CC56CCOC6)ncc4cc3Cl)CC2)COCC1O (single isomer, unassigned) [Ex-2.10, (1R,3R or 1S,3S)-N-(7-chloro-6-(4-((3R,4R or 3S,4S)-4-hydroxy-3-methyltetrahydrofuran-3-yl)piperazin-1-yl)isoquinolin-3-yl)-5-oxaspiro[2.4]heptane-1-carboxamide]	0.589
